Patent publication US10889611B2, “Sialyltransferase inhibitors and uses thereof” (Academia Sinica, priority 2015, dated 2021)

What was measured:
[1] = tested on: metastatic melanoma (B16-F10/Luc cells); assay: Metastatic melanoma-bearing C57BL mice; assay type: in vivo
Method: (§1) Six C57BL mice (3-6 weeks old) were subcutaneously or intravenously injected with 5×10^5 primary melanoma cells (i.e., B16-F10/Luc cells) on day 0 and allowed the tumor to grow for 7 days to create primary or metastatic melanoma model. Then, the test compound (e.g., FCW393, 10 mg/Kg, i.p.) was administered by intraperitoneal injection at the interval of 3 times per week, until day 26 in each animal model. Tumor sizes were measured using calipers at designated days, and tumor volume was calculated using the formula: volume=width^2×length×0.52. The average body weight (BW) of the animals was measured daily, and the concentration of the test compound(s) (i.e., FCW393) in i.p. injection was adjusted proportionally to the BW respectively at the indicated dosage and time. After treatment, mice were sacrified and their white blood cells (WBC), red blood cells (RBC), platelets (PLT), hemoglobin (HGB), hematocrit (HCT), mean corpuscular volume (MCV), mean corpuscular hemoglobin (MCH), and mean corpuscular hemoglobin concentration (MCHC) were respectively determined; their weights of lymph nodes, thymus, and spleen were measured; as well as the levels of aspartate aminotransferase (AST), analine aminotransferase (ALT), albumin, triglyceride, blood urea nitrogen (BUN), creatinine, and uric acid were measured.

[2] = tested on: primary melanoma cells (B16-F10/Luc cells); assay: Primary melanoma-bearing C57BL mice; assay type: in vivo
Method: as §1
In this example, effects of FCW393 (or compound 16) on animals implanted with primary melanoma cells were investigated, in which the body weight; the size of the tumor; the respective weights of lymph nodes, thymus, and spleen; the respective functions of liver, kidney, and vascular system; as well as the levels of inflammation and/or stress markers were determined. Results are illustrated in FIGS. 8-15.

PANC-1 cells [3] = assay: MTT assay cytotoxicity, PANC-1 cells; assay type: cell-based, human; conditions: 1, 5, 10, 25 and 50 μM for 24 and 48 hours, FIG. 6
Method: (§2) The absorbance of the solution at 570 nm was measured by spectrophotometer.
(§3) The cytotoxicity of FCW551 on PANC-1 and LN cells were determined by MTT assay in according to procedures described in the “Materials and Methods” section.

LN cells [4] = assay: Migration and invasion analysis, LN cells; assay type: cell-based, human; conditions: 1 and 20 μM for 24 and 48 hours, FIG. 7
Excerpt: (§4) The LN cell line was established by orthotopically injected 5×10^5 PANC-1 cells to the pancreas of SCID mice. After one month, mestastasis was found in lymph nodes, cancerous cells were then isolated from lymph nodes. The genomic DNA of the isolated cancer cells from lymph nodes were extracted and sent for genotyping analysis, which confirmed that LN cells were indeed derived from PANC-1 cells (data not shown).
(§5) Migration assays were done using a transwell, in which a polycarbonate filter pre-coated with Matrigel (8-μm pores, Millicell; Millipore, Billerica, Mass.) was inserted therein. Cells were serum-starved for 24 h and then seeded (5×10^5 cells per upper chamber) and treated with or without the present compound(s) (concentrations as indicated), and the assays were run for 6 h. Cells that had migrated to the underside of the inserted filter were stained with hematoxylin solution. The cells in the upper side of the inserted membrane were rubbed with a cotton swab. The migrated cells on the underside were pictured in a 200× magnification field and quantified.
(§6) In this example, the ability of the FCW551 in suppressing the migration and/or invasion of pancreatic cancer cells was investigated. Briefly, PANC-1 and LN cells were respectively treated with 1 and 20 μM FCW551 for 24 and 48 hours before subjecting to the migration and invasion analysis. Results are illustrated in FIG. 7.

LN cells [5] = assay: MTT assay cytotoxicity, LN cells; assay type: cell-based, human; conditions: 1, 5, 10, 25 and 50 μM for 24 and 48 hours, FIG. 6
Method: as §4, §2, §3

PANC-1 cells [6] = assay: Migration and invasion analysis, PANC-1 cells; assay type: cell-based, human; conditions: 1 and 20 μM for 24 and 48 hours, FIG. 7
Method: as §5, §6

SMILES	melting point [°C]	weight of lymph node, thymus, or spleen ([1]; FIG. 13)	levels of WBC, RBC, platelets, HGB, HCT, MCV, MCH, and MCHC ([1]; FIG. 14)	level of inflammation marker or stress marker ([1]; FIG. 15)	growth of tumor (bioluminescence IVIS images) ([1]; days 7 and 14, FIG. 12, panels A and B)	body weights of the test animals ([2]; 10 mg/Kg, i.p.)	tumor volume as compared with that of the control animal ([2]; 10 mg/Kg, i.p., 3 times per week)	weight of lymph node, thymus, or spleen ([2]; FIG. 9)	counts of white blood cells (WBC), increase ([2]; FIG. 10, panel A) [fold]	levels of RBC, PLT, HGB, HCT, MCV, MCH and MCHC ([2]; FIG. 10, panels B to H)	level of analine aminotransferase (ALT) ([2]; FIG. 11)	level of aspartate aminotransferase (AST) ([2]; FIG. 11)	level of inflammation marker (albumin) ([2]; FIG. 11, panel C)	level of the stress marker (uric acid) ([2]; FIG. 11, panel G)	cytotoxicity (PANC-1 cells [3])	invasion ability (LN cells [4])	migration ability (LN cells [4])	cytotoxicity (LN cells [5])	invasion ability (PANC-1 cells [6])	migration ability (PANC-1 cells [6])
C[C@H](CCC(=O)OCCOCCOCCN=[N+]=[N-])C1CCC2C3CC[C@@H]4C[C@H](NC(=O)[C@H](CC(=O)O)Nc5ccc([N+](=O)[O-])c6nonc56)CC[C@]4(C)C3CC[C@@]21C (stereo partly drawn) [Compound 16, (3S)-4-(((3R,5R,10S,13R)-17-((R)-5-(2-(2-(2-azidoethoxy)ethoxy)ethoxy)-5-oxopentan-2-yl)-10,13-dimethylhexadecahydro-1H-cyclopenta[a]phenanthren-3-yl)amino)-3-((7-nitrobenzo[c][1,2,5]oxadiazol-4-yl)amino)-4-oxobutanoic acid]	80 to 81	did not affect	nor did it possess any significant effects	did not affect	suppress the growth of tumor	without significantly affecting	about 1/3	no effects	2	no effects	did not affect	reduce	no effect	slightly increased	–	–	–	–	–	–
C[C@H](CCC(=O)NCCOCCOCCN=[N+]=[N-])C1CCC2C3CC[C@@H]4C[C@H](NC(=O)[C@H](CC(=O)O)Nc5ccc([N+](=O)[O-])c6nonc56)CC[C@]4(C)C3CC[C@@]21C (stereo partly drawn) [Compound 17, (3S)-4-(((3R,5R,10S,13R)-17-((R)-5-((2-(2-(2-azidoethoxy)ethoxy)ethyl)amino)-5-oxopentan-2-yl)-10,13-dimethylhexadecahydro-1H-cyclopenta[a]phenanthren-3-yl)amino)-3-((7-nitrobenzo[c][1,2,5]oxadiazol-4-yl)amino)-4-oxobutanoic acid]	90 to 91	–	–	–	–	–	–	–	–	–	–	–	–	–	no significant cytotoxicity	greatly suppressed	greatly suppressed	no significant cytotoxicity	greatly suppressed	greatly suppressed
